Data taken from ChEMBL document CHEMBL1641488, “Computational approach to the identification of novel Aurora-A inhibitors” (Bioorg Med Chem, 2011).

How the values were obtained:
DU-145 [1] = test: Cytotoxicity against human DU145 cells after 4 hrs by MTT assay; type: functional; conditions: DU-145, 4 h
HT-29 [2] = test: Cytotoxicity against human HT-29 cells after 4 hrs by MTT assay; type: functional; conditions: HT-29, 4 h
DU-145 [3] = test: Cytotoxicity against human DU145 cells at 10 uM after 4 hrs by MTT assay; type: functional; conditions: DU-145, 4 h
HT-29 [4] = test: Cytotoxicity against human HT-29 cells at 10 uM after 4 hrs by MTT assay; type: functional; conditions: HT-29, 4 h
Aurora kinase A = biological target: T1, Aurora kinase A (Homo sapiens, UniProt O14965); test: Inhibition of human recombinant His-tagged Aurora A kinase expressed in insect cells
T1 sequence (O14965 whole entry): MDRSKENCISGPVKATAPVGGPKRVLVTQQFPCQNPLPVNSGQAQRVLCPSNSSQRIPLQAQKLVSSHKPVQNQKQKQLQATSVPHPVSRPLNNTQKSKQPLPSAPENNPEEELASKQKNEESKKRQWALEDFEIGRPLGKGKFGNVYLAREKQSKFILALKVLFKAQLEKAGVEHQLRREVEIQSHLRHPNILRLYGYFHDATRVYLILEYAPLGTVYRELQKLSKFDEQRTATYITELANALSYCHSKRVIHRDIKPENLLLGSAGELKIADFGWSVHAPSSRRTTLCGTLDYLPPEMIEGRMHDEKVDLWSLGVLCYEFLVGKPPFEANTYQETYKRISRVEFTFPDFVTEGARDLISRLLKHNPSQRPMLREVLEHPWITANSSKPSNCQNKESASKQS

SMILES	GI50 (DU-145 [1]) [µM]	GI50 (HT-29 [2]) [µM]	inhibition at 10 µM (DU-145 [3]) [%]	inhibition at 10 µM (HT-29 [4]) [%]	IC50 (Aurora kinase A; read-out: IC50) [µM]	IC50 (Aurora kinase A)
CCOc1ccc(NC(=O)Cn2c(Nc3ccc(OCC)cc3)nc3c2c(=O)[nH]c(=O)n3C)cc1	> 100	7.91	57	62	98.7	
CCOc1ccc2nc(NC3=NC(=O)CC(c4ccc(OC)cc4)N3)nc(C)c2c1 (stereo unspecified)	4.26	7.08	84	85		Not Active
Cc1ccc(-c2nnc(Nc3ccc(Oc4ncccc4-c4c[nH]nc4N)cc3)c3ccccc23)cc1					0.06	
COc1ccc2cc(C(=O)C3CCC(C(C)C(=O)NCCC4=CCCCC4)CC3)[nH]c2c1 (stereo unspecified)	15.9	9.36	49	68	86.2	
COc1ccc(C(=O)Nc2ccccc2C(=O)NC(Cc2ccc(O)cc2)C(=O)Nc2ccc(C)cc2C)cc1 (stereo unspecified)	2.73	5.23	90	73	5.09	
COc1ccc(OCC(O)Cn2c(N/N=C/c3ccccc3O)nc3c2c(=O)[nH]c(=O)n3C)cc1 (stereo unspecified)	27.7	7.94	23	58	18.4	
CCOc1ccc2nc(Nc3nc(O)c4ccccc4n3)nc(C)c2c1	36.9	29.1	80	89	16.7	
Cc1ccc(NC(=O)C(Cc2ccc(O)cc2)NC(=O)c2ccccc2N)cc1 (stereo unspecified)	3.93	9.48	87	54	11.9	
COc1ccc2sc(SCC(=O)Nc3ncc(Br)s3)nc2c1	17	2.04	49	89	> 100	
CC(=O)Nc1cccc(NC(=O)C(=O)NCCc2sc(-c3ccc(Cl)cc3)nc2C)c1	> 100	16.5	32	54	> 100	
CCCOc1ccc(CNC(=O)c2[nH]c3cc(C)ccc3c2Sc2ccccc2)cc1	26	5.36	34	64		Not Active
CCOc1ccc2cc(CNc3cc(OC)cc(OC)c3)c(=O)[nH]c2c1 [ASN07410292]	5.81	3.64	80	88		Not Active
CCOc1ccc(NC(=S)N(CCN(CC)CC)Cc2cc3cc4c(cc3[nH]c2=O)OCCO4)cc1 [ASN03776845]	14.1	6.33	49	78		Not Active
Cc1ccc(Nc2cc(Nc3ccc(NS(=O)(=O)c4ccccc4F)cc3)nc(C)n2)cc1	23.4	5.12	38	83		Not Active
COc1ccc(-c2cc(C(=O)Nc3ccc(C)cc3C)c3c(-c4ccccc4)[nH]nc3n2)cc1OC	2.06	1.65	92	91	> 100	
COc1ccc(N(CC(=O)Nc2cc(Cl)ccc2C)S(=O)(=O)c2c(C)n[nH]c2C)cc1	5.98	3.98	74	87		Not Active
